Tests used:
Test in all cases: cells
MDA-MB-231 = format: functional, cell-based, Homo sapiens; details: Homo sapiens, MDA-MB-231
Description: SANGER: Inhibition of human MDA-MB-231 cell growth in a cell viability assay.

NCI-H1651 = format: functional, cell-based, Homo sapiens; details: Homo sapiens, NCI-H1651;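 also: Read-out is a cell viability assay, with IC50 expressing inhibition of NCI-H1651 cell growth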
Description: SANGER: Inhibition of human NCI-H1651 cell growth in a cell viability assay.

OVCAR-8 = format: functional, cell-based, Homo sapiens; details: Homo sapiens, OVCAR-8;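 also: growth inhibition of human OVCAR-8 cells, read out by a cell viability assay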
Description: SANGER: Inhibition of human OVCAR-8 cell growth in a cell viability assay.

SKG-IIIa = format: functional, cell-based, Homo sapiens; details: Homo sapiens, SKG-IIIa;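 also: cell growth inhibition, read out with a cell viability assay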
Description: SANGER: Inhibition of human SKG-IIIa cell growth in a cell viability assay.

SiHa = format: functional, cell-based, Homo sapiens; details: Homo sapiens, SiHa;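 also: Viability-based readout of growth inhibition in SiHa cells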
Description: SANGER: Inhibition of human SiHa cell growth in a cell viability assay.

OAW-42 = format: functional, cell-based, Homo sapiens; details: Homo sapiens, OAW-42;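 also: growth inhibition of OAW-42 cells, read out with a cell viability assay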
Description: SANGER: Inhibition of human OAW-42 cell growth in a cell viability assay.

NCI-H1993 = format: functional, cell-based, Homo sapiens; details: Homo sapiens, NCI-H1993;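 also: growth inhibition of the cancer cell line, assessed with a cell viability assay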
Description: SANGER: Inhibition of human NCI-H1993 cell growth in a cell viability assay.

SF-295 = format: functional, cell-based, Homo sapiens; details: Homo sapiens, SF-295;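 also: growth inhibition of SF-295 cells, read out with a cell viability assay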
Description: SANGER: Inhibition of human SF295 cell growth in a cell viability assay.

SW1783 = format: functional, cell-based, Homo sapiens; details: Homo sapiens, SW1783;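 also: cell growth inhibition measured with a viability assay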
Description: SANGER: Inhibition of human SW1783 cell growth in a cell viability assay.

NCI-H1048 = format: functional, cell-based, Homo sapiens; details: Homo sapiens, NCI-H1048;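 also: growth inhibition of human NCI-H1048 cells, read out with a cell viability assay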
Description: SANGER: Inhibition of human NCI-H1048 cell growth in a cell viability assay.

BPH-1 = format: functional, cell-based, Homo sapiens; details: Homo sapiens, BPH-1;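 also: cell viability assay measuring growth inhibition of human BPH-1 cells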
Description: SANGER: Inhibition of human BPH-1 cell growth in a cell viability assay.

COR-L23 = format: functional, cell-based, Homo sapiens; details: Homo sapiens, COR-L23;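 also: cell viability assay measuring how strongly compounds suppress growth of COR-L23 cells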
Description: SANGER: Inhibition of human COR-L23 cell growth in a cell viability assay.

T98G = format: functional, cell-based, Homo sapiens; details: Homo sapiens, T98G;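 also: growth inhibition of T98G cells, read out by a cell viability assay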
Description: SANGER: Inhibition of human T98G cell growth in a cell viability assay.

A204 = format: functional, cell-based, Homo sapiens; details: Homo sapiens, A204;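 also: growth inhibition of human A204 cells, read out with a cell viability assay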
Description: SANGER: Inhibition of human A204 cell growth in a cell viability assay.

EW-22 = format: functional, cell-based, Homo sapiens; details: Homo sapiens, EW-22;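 also: growth inhibition of the EW-22 cell line, measured with a cell viability readout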
Description: SANGER: Inhibition of human EW-22 cell growth in a cell viability assay.

MDA-MB-157 = format: functional, cell-based, Homo sapiens; details: Homo sapiens, MDA-MB-157
Description: SANGER: Inhibition of human MDA-MB-157 cell growth in a cell viability assay.

UMC-11 = format: functional, cell-based, Homo sapiens; details: Homo sapiens, UMC-11;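 also: growth inhibition of UMC-11 cells, read out with a cell viability assay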
Description: SANGER: Inhibition of human UMC-11 cell growth in a cell viability assay.

CAL-12T = format: functional, cell-based, Homo sapiens; details: Homo sapiens, CAL-12T;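 also: growth inhibition of human CAL-12T cells, read out with a cell viability assay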
Description: SANGER: Inhibition of human CAL-12T cell growth in a cell viability assay.

PANC-08-13 = format: functional, cell-based, Homo sapiens; details: Homo sapiens, PANC-08-13;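 also: cell growth inhibition, measured with a cell viability assay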
Description: SANGER: Inhibition of human PANC-08-13 cell growth in a cell viability assay.

SNU-387 = format: functional, cell-based, Homo sapiens; details: Homo sapiens, SNU-387
Description: SANGER: Inhibition of human SNU-387 cell growth in a cell viability assay.

HuO-3N1 = format: functional, cell-based, Homo sapiens; details: Homo sapiens, HuO-3N1;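 also: cell viability readout used to measure how strongly compounds suppress proliferation of human HuO-3N1 cells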
Description: SANGER: Inhibition of human HuO-3N1 cell growth in a cell viability assay.

Ca-Ski = format: functional, cell-based, Homo sapiens; details: Homo sapiens, Ca-Ski;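 also: cell viability assay measuring inhibition of Ca-Ski cell growth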
Description: SANGER: Inhibition of human Ca-Ski cell growth in a cell viability assay.

VM-CUB-1 = format: functional, cell-based, Homo sapiens; details: Homo sapiens, VM-CUB-1;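 also: cell viability assay measuring growth inhibition of the human VM-CUB-1 cell line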
Description: SANGER: Inhibition of human VM-CUB-1 cell growth in a cell viability assay.

NCI-H2342 = format: functional, cell-based, Homo sapiens; details: Homo sapiens, NCI-H2342;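 also: growth inhibition of the cancer cell line, determined with a cell viability assay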
Description: SANGER: Inhibition of human NCI-H2342 cell growth in a cell viability assay.

MFE-280 = format: functional, cell-based, Homo sapiens; details: Homo sapiens, MFE-280;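 also: growth inhibition of MFE-280 cells, determined with a cell viability readout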
Description: SANGER: Inhibition of human MFE-280 cell growth in a cell viability assay.

U2OS = format: functional, cell-based, Homo sapiens, U-2-OS; details: Homo sapiens, U2OS;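 also: growth inhibition of human U-2-OS cells, determined with a cell viability assay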
Description: SANGER: Inhibition of human U-2-OS cell growth in a cell viability assay.

CP50-MEL-B = format: functional, cell-based, Homo sapiens; details: Homo sapiens, CP50-MEL-B;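 also: growth inhibition of the human cell line, measured with a cell viability read-out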
Description: SANGER: Inhibition of human CP50-MEL-B cell growth in a cell viability assay.

NCI-H1573 = format: functional, cell-based, Homo sapiens; details: Homo sapiens, NCI-H1573;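 also: growth inhibition of NCI-H1573 cells, read out with a cell viability assay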
Description: SANGER: Inhibition of human NCI-H1573 cell growth in a cell viability assay.

SW48 = format: functional, cell-based, Homo sapiens; details: Homo sapiens, SW48;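 also: growth inhibition of SW48 cells, read out with a cell viability assay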
Description: SANGER: Inhibition of human SW48 cell growth in a cell viability assay.

ASPC1 = format: functional, cell-based, Homo sapiens; details: Homo sapiens, ASPC1;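 also: growth inhibition of AsPC-1 cells, read out with a cell viability assay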
Description: SANGER: Inhibition of human AsPC-1 cell growth in a cell viability assay.

SW756 = format: functional, cell-based, Homo sapiens; details: Homo sapiens, SW756;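 also: growth inhibition of human SW756 cells, read out with a cell viability assay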
Description: SANGER: Inhibition of human SW756 cell growth in a cell viability assay.

SK-HEP1 = format: functional, cell-based, Homo sapiens, SK-HEP-1; details: Homo sapiens, SK-HEP1;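 also: cell viability readout used to quantify reduction in proliferation of human SK-HEP-1 cells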
Description: SANGER: Inhibition of human SK-HEP-1 cell growth in a cell viability assay.

UACC-893 = format: functional, cell-based, Homo sapiens; details: Homo sapiens, UACC-893
Description: SANGER: Inhibition of human UACC-893 cell growth in a cell viability assay.

D-336MG = format: functional, cell-based, Homo sapiens; details: Homo sapiens, D-336MG
Description: SANGER: Inhibition of human D-336MG cell growth in a cell viability assay.

G-402 = format: functional, cell-based, Homo sapiens; details: Homo sapiens, G-402
Description: SANGER: Inhibition of human G-402 cell growth in a cell viability assay.

SMILES: CCN(CC)CCCCNc1ncc2cc(-c3cc(OC)cc(OC)c3)c(NC(=O)NC(C)(C)C)nc2n1 [PD-173074]
- IC50 (MDA-MB-231): > 2 µM
- IC50 (NCI-H1651): > 2 µM
- IC50 (OVCAR-8): > 2 µM
- IC50 (SKG-IIIa): > 2 µM
- IC50 (SiHa): > 2 µM
- IC50 (OAW-42): > 2 µM
- IC50 (NCI-H1993): > 2 µM
- IC50 (SF-295): > 2 µM
- IC50 (SW1783): > 2 µM
- IC50 (NCI-H1048): > 2 µM
- IC50 (BPH-1): > 2 µM
- IC50 (COR-L23): > 2 µM
- IC50 (T98G): > 2 µM
- IC50 (A204): > 2 µM
- IC50 (EW-22): > 2 µM
- IC50 (MDA-MB-157): > 2 µM
- IC50 (UMC-11): > 2 µM
- IC50 (CAL-12T): > 2 µM
- IC50 (PANC-08-13): > 2 µM
- IC50 (SNU-387): > 2 µM
- IC50 (HuO-3N1): 0.547 µM
- IC50 (Ca-Ski): > 2 µM
- IC50 (VM-CUB-1): > 2 µM
- IC50 (NCI-H2342): > 2 µM
- IC50 (MFE-280): 0.859 µM
- IC50 (U2OS): > 2 µM
- IC50 (CP50-MEL-B): > 2 µM
- IC50 (NCI-H1573): > 2 µM
- IC50 (SW48): > 2 µM
- IC50 (ASPC1): > 2 µM
- IC50 (SW756): > 2 µM
- IC50 (SK-HEP1): > 2 µM
- IC50 (UACC-893): > 2 µM
- IC50 (D-336MG): > 2 µM
- IC50 (G-402): > 2 µM

SMILES: CC(C)CCN1c2nc(Nc3cc(F)c(O)c(F)c3)ncc2N(C)C(=O)C1C (stereo not given)
- IC50 (MDA-MB-231): 4.72 µM
- IC50 (NCI-H1651): > 5 µM
- IC50 (OVCAR-8): > 5 µM
- IC50 (SKG-IIIa): > 5 µM
- IC50 (SiHa): > 5 µM
- IC50 (OAW-42): > 5 µM
- IC50 (NCI-H1993): > 5 µM
- IC50 (SF-295): > 5 µM
- IC50 (SW1783): > 5 µM
- IC50 (NCI-H1048): 2.68 µM
- IC50 (BPH-1): 2.13 µM
- IC50 (COR-L23): 4.74 µM
- IC50 (T98G): 3.28 µM
- IC50 (A204): > 5 µM
- IC50 (EW-22): > 5 µM
- IC50 (MDA-MB-157): 4.31 µM
- IC50 (UMC-11): > 5 µM
- IC50 (CAL-12T): 4.06 µM
- IC50 (PANC-08-13): > 5 µM
- IC50 (SNU-387): > 5 µM
- IC50 (HuO-3N1): > 5 µM
- IC50 (Ca-Ski): 3.48 µM
- IC50 (VM-CUB-1): > 5 µM
- IC50 (NCI-H2342): > 5 µM
- IC50 (MFE-280): > 5 µM
- IC50 (U2OS): > 5 µM
- IC50 (CP50-MEL-B): > 5 µM
- IC50 (NCI-H1573): > 5 µM
- IC50 (SW48): 3.43 µM
- IC50 (ASPC1): > 5 µM
- IC50 (SW756): > 5 µM
- IC50 (SK-HEP1): > 5 µM
- IC50 (UACC-893): > 5 µM
- IC50 (D-336MG): > 5 µM
- IC50 (G-402): > 5 µM

SMILES: COc1cc2c(Nc3ccc(NC(=O)c4ccccc4)cc3)ncnc2cc1OCCCN1CCOCC1
- IC50 (MDA-MB-231): > 4 µM
- IC50 (NCI-H1651): 3.74 µM
- IC50 (OVCAR-8): > 4 µM
- IC50 (SKG-IIIa): > 4 µM
- IC50 (SiHa): > 4 µM
- IC50 (OAW-42): > 4 µM
- IC50 (NCI-H1993): > 4 µM
- IC50 (SF-295): > 4 µM
- IC50 (SW1783): > 4 µM
- IC50 (NCI-H1048): 1.8 µM
- IC50 (BPH-1): > 4 µM
- IC50 (COR-L23): > 4 µM
- IC50 (T98G): 3.95 µM
- IC50 (A204): > 4 µM
- IC50 (EW-22): 3.18 µM
- IC50 (MDA-MB-157): > 4 µM
- IC50 (UMC-11): 2.37 µM
- IC50 (CAL-12T): > 4 µM
- IC50 (PANC-08-13): > 4 µM
- IC50 (SNU-387): > 4 µM
- IC50 (HuO-3N1): > 4 µM
- IC50 (Ca-Ski): > 4 µM
- IC50 (VM-CUB-1): 2.63 µM
- IC50 (NCI-H2342): > 4 µM
- IC50 (MFE-280): 3.41 µM
- IC50 (U2OS): > 4 µM
- IC50 (CP50-MEL-B): > 4 µM
- IC50 (NCI-H1573): > 4 µM
- IC50 (SW48): 1.23 µM
- IC50 (ASPC1): > 4 µM
- IC50 (SW756): > 4 µM
- IC50 (SK-HEP1): > 4 µM
- IC50 (UACC-893): > 4 µM
- IC50 (D-336MG): > 4 µM
- IC50 (G-402): > 4 µM

Source: ChEMBL document CHEMBL1201861, “Genomics of Drug Sensitity in Cancer screening data, Wellcome Trust Sanger Institute”
